{"source": "paper PMC4242536", "about": "“Cell Surface Protein Disulfide Isomerase Regulates Natriuretic Peptide Generation of Cyclic Guanosine Monophosphate” (PLoS ONE, 2014)", "key": {"[1]": {"target": "T1, PDI full-length protein (Homo sapiens, UniProt P07237)", "T1 construct": "PDI full-length protein (Sigma, St. Louis, MO) was immobilized onto a CM5 sensorchip; purchased Sigma (St. Louis, MO)", "T1 sequence (P07237 18-508, species assumed)": "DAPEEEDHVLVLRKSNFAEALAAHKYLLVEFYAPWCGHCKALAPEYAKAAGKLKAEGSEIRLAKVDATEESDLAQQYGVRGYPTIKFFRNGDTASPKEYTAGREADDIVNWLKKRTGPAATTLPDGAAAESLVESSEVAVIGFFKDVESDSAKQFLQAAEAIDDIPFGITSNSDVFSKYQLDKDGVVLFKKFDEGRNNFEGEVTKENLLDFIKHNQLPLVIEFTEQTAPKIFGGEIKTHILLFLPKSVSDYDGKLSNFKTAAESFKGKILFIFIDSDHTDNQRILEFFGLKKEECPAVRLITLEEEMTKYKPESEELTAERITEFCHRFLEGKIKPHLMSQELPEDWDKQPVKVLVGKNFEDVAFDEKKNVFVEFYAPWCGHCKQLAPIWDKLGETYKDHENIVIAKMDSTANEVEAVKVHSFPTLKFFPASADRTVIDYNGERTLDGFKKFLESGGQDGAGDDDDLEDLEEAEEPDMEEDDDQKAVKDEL", "assay": "Surface Plasmon Resonance binding to immobilized PDI (Biacore T200)", "details": "SPR, 25°C, pH 7.4", "experimental": "SPR measurements were performed at 25°C on a Biacore T200 biosensor (GE Healthcare). PDI full-length protein (Sigma, St. Louis, MO) was immobilized onto a CM5 sensorchip using an amine coupling immobilization kit (GE Healthcare) as instructed by the supplier. After the chip was washed with Biacore running buffer (150 mM NaCl, and 0.005% (w/v) Polysorbate 20, 10 mM HEPES, pH 7.4), peptides ANP, BNP or CNP were injected at 40 ul/min for 30 s and allowed to dissociate for 150 s. Residual bound peptide was desorbed with 350 mM NaCl. Binding kinetics were derived from sensorgrams using Bioevaluation software version 4.1.1 (GE Healthcare)."}, "[2]": {"test_system": "HMCs, HASMCs, and HUVECs", "assay": "Total cellular cGMP in HMCs, HASMCs and HUVECs (summary over cells)", "type": "cell-based, human", "experimental": "(§1) Human umbilical vein endothelial cells (HUVECs), human aortic smooth muscle cells (HASMCs), and pig kidney epithelial cells (LLC-PK1) were purchased from American Type Culture Collection (ATCC) (Manassas, VA). HUVECs were cultured in endothelial growth medium (EGM-2) with supplements (Lonza, Hopkinton, MA). HASMCs were cultured in smooth muscle cells growth medium (SmBM) with supplements (Lonza). Primary human glomerular mesangial cells (HMCs) (Cell Systems Inc., Kirkland, WA) were grown in mesangial growth media with supplements (Cell Systems Inc.). LLC-PK1 cells were grown in Dullbecco's Modification of Eagle's Medium (DMEM) containing 10% FBS. All cell cultures were grown at 37°C in humidified 5% CO2 air. Primary cells from passage 3 to 7 were used in this study. Total cellular cGMP was measured using the BIOTRAK cGMP enzyme immunoassay system Kit (GE Healthcare) as previously described. Briefly, cells were plated in 96-well plates and incubated overnight to reach 80% confluence. The cells were stimulated with different concentrations of synthetic natriuretic peptides dissolved in basic culture medium containing 0.5 mM IBMX for 30 minutes, then lysed. All samples were completed in triplicate for each experiment. The amount of cGMP was calculated from a standard curve that was generated in parallel. […]"}, "[3]": {"test_system": "human mesangial cells (HMCs)", "assay": "Total cellular cGMP (BIOTRAK enzyme immunoassay) in HMCs stimulated by natriuretic peptides", "type": "cell-based", "experimental": "(§2) Human umbilical vein endothelial cells (HUVECs), human aortic smooth muscle cells (HASMCs), and pig kidney epithelial cells (LLC-PK1) were purchased from American Type Culture Collection (ATCC) (Manassas, VA). HUVECs were cultured in endothelial growth medium (EGM-2) with supplements (Lonza, Hopkinton, MA). HASMCs were cultured in smooth muscle cells growth medium (SmBM) with supplements (Lonza). Primary human glomerular mesangial cells (HMCs) (Cell Systems Inc., Kirkland, WA) were grown in mesangial growth media with supplements (Cell Systems Inc.). LLC-PK1 cells were grown in Dullbecco's Modification of Eagle's Medium (DMEM) containing 10% FBS. All cell cultures were grown at 37°C in humidified 5% CO2 air. Primary cells from passage 3 to 7 were used in this study.\n(§3) Total cellular cGMP was measured using the BIOTRAK cGMP enzyme immunoassay system Kit (GE Healthcare) as previously described. Briefly, cells were plated in 96-well plates and incubated overnight to reach 80% confluence. The cells were stimulated with different concentrations of synthetic natriuretic peptides dissolved in basic culture medium containing 0.5 mM IBMX for 30 minutes, then lysed. All samples were completed in triplicate for each experiment. The amount of cGMP was calculated from a standard curve that was generated in parallel. […]"}, "[4]": {"test_system": "GC-B", "assay": "Western blot of GC-B expression in HMCs", "type": "cell-based, human", "details": "HMCs with and without bacitracin", "experimental": "as §2, with “study. Conventional western blotting was used to identify PDI in cellular proteins and was described previously.” for “study.”"}, "[5]": {"test_system": "PDI", "assay": "Diphtheria toxin sensitivity assay (cell survival) in HMCs", "type": "cell-based, human", "details": "DT 30 minutes then 72 hours, p<0.05, 3 independent experiments"}, "[6]": {"test_system": "human aortic smooth muscle cells (HASMCs)", "assay": "Total cellular cGMP (BIOTRAK enzyme immunoassay) in HASMCs stimulated by natriuretic peptides", "type": "cell-based", "details": "30 minutes with NP, 0.5 mM IBMX, p ≤0.05 vs samples without bacitracin, 3 independent experiments in triplicate", "experimental": "as §1"}, "[7]": {"test_system": "pig kidney epithelial cells (LLC-PK1)", "assay": "Total cellular cGMP (BIOTRAK enzyme immunoassay) in LLC-PK1 cells stimulated by ANP", "type": "cell-based", "experimental": "as §2, §3"}, "[8]": {"test_system": "human umbilical vein endothelial cells (HUVECs)", "assay": "Total cellular cGMP (BIOTRAK enzyme immunoassay) in HUVECs stimulated by natriuretic peptides", "type": "cell-based", "details": "30 minutes with NP, 0.5 mM IBMX, p ≤0.05 vs samples without bacitracin, 3 independent experiments in triplicate", "experimental": "as §1"}}, "data": [{"compound": "CC[C@H](C)[C@@H]1NC(=O)[C@H](CCCNC(=N)N)NC(=O)[C@H](CC(=O)O)NC(=O)[C@H](CCSC)NC(=O)[C@H](CCCCN)NC(=O)[C@H](CCCNC(=N)N)NC(=O)CNC(=O)[C@H](Cc2ccccc2)NC(=O)[C@@H](NC(=O)CNC(=O)[C@H](CO)NC(=O)CNC(=O)[C@H](CCC(N)=O)NC(=O)[C@@H](NC(=O)[C@H](CCSC)NC(=O)[C@H](CCCCN)NC(=O)[C@@H]2CCCN2C(=O)[C@@H](N)CO)C(C)C)CSSC[C@@H](C(=O)N[C@@H](CCCCN)C(=O)N[C@H](C(=O)N[C@@H](CC(C)C)C(=O)N[C@@H](CCCNC(=N)N)C(=O)N[C@@H](CCCNC(=N)N)C(=O)N[C@@H](Cc2c[nH]cn2)C(=O)O)C(C)C)NC(=O)CNC(=O)[C@H](CC(C)C)NC(=O)CNC(=O)[C@H](CO)NC(=O)[C@H](CO)NC(=O)[C@H](CO)NC(=O)[C@H](CO)NC1=O", "note": "[BNP, B-type natriuretic peptide]", "values": [{"measurement": "binding to immobilized PDI (in words)", "setting": "[1]; 0–1600 nM ANP and BNP, 200 nM comparison of NPs", "value": "highest binding affinity with PDI and displayed dose-dependent increases in binding"}]}, {"compound": "C-type natriuretic peptide [CNP]", "values": [{"measurement": "affinity for PDI (in words)", "setting": "[1]; compared with ANP and BNP, Fig. 5D", "value": "much lower affinity"}]}, {"compound": "bacitracin", "values": [{"measurement": "dose dependence of the inhibitory effect on NP-mediated cGMP", "setting": "[2]; data not shown, HMCs, HASMCs and HUVECs", "value": "dose dependent"}, {"measurement": "effect on NP cGMP generation compared to RL90 or siRNA knockdown", "setting": "[2]; in words", "value": "greater effect"}, {"measurement": "inhibitory effect on cGMP levels in the presence of protease inhibitors", "setting": "[3]; HMCs stimulated by ANP and CNP, with or without protease inhibitor cocktail, 3 independent experiments", "value": "did not lose its inhibitory effects on cGMP levels"}, {"measurement": "attenuation of ANP, BNP, and CNP-mediated increases in cGMP", "setting": "[3]; HMCs, 30 minutes with NP, 0.5 mM IBMX, p ≤0.05 vs samples without bacitracin, 3 independent experiments in triplicate", "value": "significantly attenuated"}, {"measurement": "effect on GC-B expression", "setting": "[4]", "value": "no difference in GC-B expression"}, {"measurement": "cell survival on diphtheria toxin (inhibition of PDI-dependent DT toxicity)", "setting": "[5]", "value": "inhibited PDI function"}, {"measurement": "cell survival on diphtheria toxin (inhibition of PDI-dependent DT toxicity)", "setting": "[5]; listed as Bacitracin", "value": "increased cell survival significantly"}, {"measurement": "attenuation of ANP, BNP, and CNP-mediated increases in cGMP", "setting": "[6]", "value": "significantly attenuated"}, {"measurement": "inhibition of ANP-mediated increases in cGMP", "setting": "[7]; LLC-PK1 cells (no detectable PDI), p>0.05", "value": "did not inhibit"}, {"measurement": "attenuation of ANP, BNP, and CNP-mediated increases in cGMP", "setting": "[8]", "value": "significantly attenuated"}]}, {"compound": "protein disulfide isomerase [PDI]", "values": [{"measurement": "increase of ANP stimulated cGMP production", "setting": "[7]; LLC-PK1 cells, purified PDI added, compared with cells without PDI, second of two values (condition not given, Fig. 3C)", "value": 39, "unit": "%"}]}]}
